Experimental findings from ChEMBL document CHEMBL2434943, “Elaboration of thorough simplified vinca alkaloids as antimitotic agents based on pharmacophore similarity” (Eur J Med Chem, 2013) are described below.

Data set [1] relates to HepG2. The data set can be described thus: Cell cycle arrest in human HepG2 cells assessed as accumulation at G0/G1 phase at 3 uM after 48 hrs by propidium iodide staining-based flow cytometric analysis (reference value: 65.9%). The format is functional. A general note: A flow cytometer gives signals particle by particle.
Data set [2] concerns MCF7. Kind of data set: Cell cycle arrest in human MCF7 cells assessed as accumulation at S phase at 3 uM after 36 hrs by propidium iodide staining-based flow cytometric analysis (reference value: 12.5%). The format is functional.
The subject of data set [3] is MCF7. The data set can be described thus: Cell cycle arrest in human MCF7 cells assessed as accumulation at G0/G1 phase at 1 uM after 36 hrs by propidium iodide staining-based flow cytometric analysis (reference value: 67.3%). Type of data set: functional.
For the next data set, the system named is MDA-MB-231. Kind of data set: Cytotoxicity against human MDA-MB-231 cells assessed as growth inhibition after 72 hrs by MTT assay. The format is functional, cell-based. To be noted: MDA-MB-231, 72 h. On the technique in general: Formazan colour is commonly taken as a measure of viable cells.
In data set [4] the test system is MCF7. Kind of data set: Cytotoxicity against human MCF7 cells assessed as growth inhibition after 72 hrs by MTT assay. The format is functional, cell-based. To be noted: MCF7, 72 h.
Data set [5] concerns HepG2. The data set can be described thus: Cell cycle arrest in human HepG2 cells assessed as accumulation at subG1 phase at 10 uM after 48 hrs by propidium iodide staining-based flow cytometric analysis (reference value: 1.2%). Type of data set: functional.
For data set [6], the system named is HepG2. The data set can be described thus: Cytotoxicity against adriamycin-resistant human HepG2 cells assessed as growth inhibition after 72 hrs by MTT assay. To be noted: HepG2, 72 h. The format is functional, cell-based.
Data set [7] relates to HepG2. Kind of data set: Cell cycle arrest in human HepG2 cells assessed as accumulation at subG1 phase at 3 uM after 48 hrs by propidium iodide staining-based flow cytometric analysis (reference value: 1.2%). Type of data set: functional.
In data set [8] the test system is HepG2. The data set can be described thus: Cell cycle arrest in human HepG2 cells assessed as accumulation at S phase at 3 uM after 48 hrs by propidium iodide staining-based flow cytometric analysis (reference value: 10.5%). The format is functional.
Data set [9] has as its system HepG2. The data set can be described thus: Cell cycle arrest in human HepG2 cells assessed as accumulation at G2/M phase at 10 uM after 48 hrs by propidium iodide staining-based flow cytometric analysis (reference value: 22.4%). The format is functional.
Data set [10] has as its system MCF7. The data set can be described thus: Cell cycle arrest in human MCF7 cells assessed as accumulation at S phase at 1 uM after 36 hrs by propidium iodide staining-based flow cytometric analysis (reference value: 12.5%). The format is functional.
Data set [11] deals with MCF7. Kind of data set: Cell cycle arrest in human MCF7 cells assessed as accumulation at G2/M phase at 5 uM after 36 hrs by propidium iodide staining-based flow cytometric analysis (reference value: 19%). Type of data set: functional.
For data set [12], the system named is HepG2. Kind of data set: Cell cycle arrest in human HepG2 cells assessed as accumulation at subG1 phase at 5 uM after 48 hrs by propidium iodide staining-based flow cytometric analysis (reference value: 1.2%). The format is functional.
Data set [13] relates to HepG2. Kind of data set: Cell cycle arrest in human HepG2 cells assessed as accumulation at G0/G1 phase at 5 uM after 48 hrs by propidium iodide staining-based flow cytometric analysis (reference value: 65.9%). Type of data set: functional.
The nature of data set [14]: Cytotoxicity against KM mouse splenic lymphocytes assessed as growth inhibition after 72 hrs by MTT assay. To be noted: Splenic lymphocyte.
For data set [15], the system named is MCF7. The data set can be described thus: Cell cycle arrest in human MCF7 cells assessed as accumulation at G0/G1 phase at 3 uM after 36 hrs by propidium iodide staining-based flow cytometric analysis (reference value: 67.3%). The format is functional.
Data set [16] deals with HepG2. The data set can be described thus: Cell cycle arrest in human HepG2 cells assessed as accumulation at G0/G1 phase at 10 uM after 48 hrs by propidium iodide staining-based flow cytometric analysis (reference value: 65.9%). The format is functional.
The subject of data set [17] is HepG2. The data set can be described thus: Antimitotic activity in human HepG2 cells assessed as cell morphological changes at 5 uM after 3 to 12 hrs by DAPI staining-based laser scanning confocal microscopic analysis. Type of data set: functional.
In data set [18] the test system is HepG2. The data set can be described thus: Cell cycle arrest in human HepG2 cells assessed as accumulation at G2/M phase at 5 uM after 48 hrs by propidium iodide staining-based flow cytometric analysis (reference value: 22.4%). Type of data set: functional.
For data set [19], the system named is HepG2. Kind of data set: Cytotoxicity against human HepG2 cells assessed as growth inhibition after 72 hrs by MTT assay. The format is functional, cell-based. To be noted: HepG2, 72 h.
Data set [20] has as its system MCF7. Kind of data set: Cell cycle arrest in human MCF7 cells assessed as accumulation at G2/M phase at 1 uM after 36 hrs by propidium iodide staining-based flow cytometric analysis (reference value: 19%). Type of data set: functional.
Data set [21] deals with MCF7. Kind of data set: Cell cycle arrest in human MCF7 cells assessed as accumulation at G0/G1 phase at 5 uM after 36 hrs by propidium iodide staining-based flow cytometric analysis (reference value: 67.3%). Type of data set: functional.
Data set [22] relates to MCF7. Kind of data set: Cell cycle arrest in human MCF7 cells assessed as accumulation at G2/M phase at 3 uM after 36 hrs by propidium iodide staining-based flow cytometric analysis (reference value: 19%). Type of data set: functional.
In data set [23] the test system is MCF7. Kind of data set: Cell cycle arrest in human MCF7 cells assessed as accumulation at subG1 phase at 1 uM after 36 hrs by propidium iodide staining-based flow cytometric analysis (reference value: 1.2%). Type of data set: functional.
The subject of data set [24] is MCF7. The data set can be described thus: Cell cycle arrest in human MCF7 cells assessed as accumulation at subG1 phase at 3 uM after 36 hrs by propidium iodide staining-based flow cytometric analysis (reference value: 1.2%). Type of data set: functional.
Data set [25] relates to HepG2. Kind of data set: Cell cycle arrest in human HepG2 cells assessed as accumulation at S phase at 10 uM after 48 hrs by propidium iodide staining-based flow cytometric analysis (reference value: 10.5%). Type of data set: functional.
Data set [26] deals with T1, Tubulin (Homo sapiens) (UniProt P68371+Q9H4B7+P0DPH7+P68366+Q13509+Q71U36+P04350+Q3ZCM7+P07437+P68363+Q9BQE3+Q6PEY2+Q13885+Q9BVA1+Q9BUF5). Kind of data set: Inhibition of tubulin polymerization (unknown origin) at 3 to 10 uM after 90 mins. The format is protein-complex assay.
Data set [27] concerns MCF7. The data set can be described thus: Cell cycle arrest in human MCF7 cells assessed as accumulation at S phase at 5 uM after 36 hrs by propidium iodide staining-based flow cytometric analysis (reference value: 12.5%). Type of data set: functional.
In data set [28] the test system is HepG2. The data set can be described thus: Cell cycle arrest in human HepG2 cells assessed as accumulation at G2/M phase at 3 uM after 48 hrs by propidium iodide staining-based flow cytometric analysis (reference value: 22.4%). Type of data set: functional.
In data set [29] the test system is HepG2. Kind of data set: Antimitotic activity in human HepG2 cells assessed as disruption of microtubule network at 5 uM by DAPI staining-based laser scanning confocal microscopic analysis. Type of data set: functional, cell-based. To be noted: TDE = time-dependent effect.
Data set [30] relates to HepG2. The data set can be described thus: Cell cycle arrest in human HepG2 cells assessed as accumulation at S phase at 5 uM after 48 hrs by propidium iodide staining-based flow cytometric analysis (reference value: 10.5%). The format is functional.
Data set [31] deals with MCF7. Kind of data set: Cell cycle arrest in human MCF7 cells assessed as accumulation at subG1 phase at 5 uM after 36 hrs by propidium iodide staining-based flow cytometric analysis (reference value: 1.2%). The format is functional.
Another data set deals with K562. Kind of data set: Cytotoxicity against human K562 cells assessed as growth inhibition after 72 hrs by MTT assay. To be noted: K562, 72 h. Type of data set: functional, cell-based.
Data set [32] can be described thus: Cytotoxicity against KM mouse splenic lymphocytes assessed as growth inhibition up to 50 uM after 72 hrs by MTT assay. To be noted: splenic lymphocyte.
Data set [33] has as its system HepG2. Kind of data set: Antimitotic activity in human HepG2 cells assessed as cell morphological changes at 18 nM after 12 hrs by DAPI staining-based laser scanning confocal microscopic analysis. Type of data set: functional.
Data set [34] has as its target T1, Tubulin (Homo sapiens). Kind of data set: Inhibition of tubulin polymerization (unknown origin) after 90 mins. Type of data set: protein-complex assay.

SMILES strings stand for the structures. The source made the active and inactive calls. No cut-off for these calls is given here.

By IC50 is commonly meant the midpoint of a concentration-inhibition curve. In the case of `CC1(C)C(/C=C/c2cccc([N+](=O)[O-])c2)=Nc2ccccc21`, the Activity in the data set with HepG2 [1] is listed as 51.3%; in the data set on MCF7 [2], 10%; with MCF7 [3], 56.8%; in the data set with HepG2 [5], 2.5%; with HepG2 [7], 2.9%; with HepG2 [8], 8.2%. Also, the Activity was 52.1% in the data set with HepG2 [9]; 14% in the data set with MCF7 [10]; 46.7% with MCF7 [11]; 3.5% in the data set with HepG2 [12]; 15.3% in the data set on HepG2 [13]; 40.6% in the data set on MCF7 [15]. The Activity turned out to be 36.8% with HepG2 [16]; 71.3% with HepG2 [18]; 28% in the data set with MCF7 [20]; 19.6% in the data set with MCF7 [21]; 39.7% in the data set on MCF7 [22]; 1.2% in the data set with MCF7 [23]. Further, the Activity with MCF7 [24] is 9.7%; with HepG2 [25], 8.6%; in the data set with MCF7 [27], 12.3%; in the data set with HepG2 [28], 37.6%; in the data set on HepG2 [29], “tde”; in the data set on HepG2 [30] it was 9.9%. Further, in the data set with MCF7 [31], the Activity came to 21.4%. The IC50 stood at 1.87 µM in the data set on MDA-MB-231; 0.89 µM in the data set with MCF7 [4]; 2.27 µM with HepG2 [6]; 18.8 µM in data set [14]; 5.04 µM in the data set with HepG2 [19]; 4.38 µM in the data set on K562. Further, the outcome in the data set on HepG2 [17] was Active. In addition, on Tubulin (Homo sapiens) [26], the inhibition entry was “Active”.
Consider `CC1(C)C(/C=C/c2c[nH]c3ccccc23)=Nc2ccccc21`, for which the half-maximal inhibitory concentration (IC50) in the data set on MDA-MB-231 was found to be 11.6 µM; in the data set on MCF7 [4] it was 3.88 µM; with HepG2 [6], 12.2 µM; with HepG2 [19], 17.9 µM; with K562, 23 µM. In addition, in data set [32], the Activity entry is recorded as “Non-toxic”.
With `CC1(C)C(/C=C/c2c[nH]c3cccc(C#N)c23)=Nc2ccccc21`, the IC50 is 18.8 µM in the data set with MDA-MB-231; 8.95 µM with MCF7 [4]; 3.18 µM in the data set with HepG2 [6]; 9.22 µM in the data set on HepG2 [19]; 15.8 µM in the data set on K562. Moreover, the Activity result in [32] is reported as “Non-toxic”.
Take `COc1cc(/C=C/C2=Nc3ccccc3C2(C)C)cc(OC)c1OC`: the IC50 was 4.13 µM with MDA-MB-231; 1.76 µM with MCF7 [4]; 10.8 µM in the data set on HepG2 [6]; 12.7 µM in the data set with HepG2 [19]; 15.3 µM in the data set with K562. In addition, the Activity result in [32] was “Non-toxic”.
Regarding `CC[C@]1(O)C[C@@H]2CN(CCc3c([nH]c4ccccc34)[C@@](C(=O)OC)(c3cc4c(cc3OC)N(C)[C@H]3[C@@](O)(C(=O)OC)[C@H](OC(C)=O)[C@]5(CC)C=CCN6CC[C@]43[C@@H]65)C2)C1`, the outcome in the data set on HepG2 [33] was Active. Also, the inhibition result on Tubulin (Homo sapiens) [34] was “Active”.
